Source: publication PMC10885153, “Membrane Permeability in a Large Macrocyclic Peptide Driven by a Saddle-Shaped Conformation” (Journal of the American Chemical Society, 2024)
Converted amounts (≈) assume the structure as drawn. Where two headings read alike, the source gives them in different places. Positions of bridges follow the written chain, without caps; N, C: chain ends. Non-standard residues stand in square brackets, D forms with d. Residues, ends and D or L forms follow the SMILES beside them. Cha = N[C@@H](CC1CCCCC1)C(=O)O; NMeNva = CCC[C@H](NC)C(=O)O; NMeC = CN[C@@H](CS)C(=O)O; NMeA = CN[C@@H](C)C(=O)O; dAbu = CC[C@@H](N)C(=O)O; dNMeA = CN[C@H](C)C(=O)O; Nva = CCC[C@H](N)C(=O)O; Abu = CC[C@H](N)C(=O)O; Nleu = CC(C)CNCC(=O)O; NPrGly = CCCNCC(=O)O; NEtG = CCNCC(=O)O

Columns and labels:
in vitro [1] = conditions: PAMPA, pH 7.4, Permeability (Papp) PAMPA (mixture)
physchem = conditions: pH 7.4, aqueous with cosolvent or surfactant or cyclodextrin, kinetic from dmso stock
Experimental: Kinetic Solubility PBS Protocol
4 µL of 10 mM compound in DMSO stock was added to 196 µL 1 X PBS pH 7.4 in a 96 -well microplate to
get a final concentration of 200 µM to shake for 24 hours at 1000 rpm. The sample was filtered sample
using a 96-Multiscreen HTS filter plate (Millipore MSSL BPC50) and a positive pressure manifold.

[2] = PAMPA, 10 µM, pH 7.4
in vitro [3] = conditions: dog, pH 7.4
Experimental: (§1) We also tested the permeabilities of the pure compounds in a cell-based trans-well permeability assay using Mdr1 knockout Madin–Darby canine kidney (MDCK) cells which minimize the endogenous efflux activity of traditional MDCK cells.[54]
(§2) The gMDCKI cell line (overexpressed cell line of Madin -Darby Canine Kidney which acquired from the NIH)
(§3) maintained in DMEM medium supplemented with 1% pen -strep, 5 µg/mL Plasmocin, and 10% FBS under
(§4) standard culture conditions (37 °C, 95% humidity, and 5% CO2), were seeded (0.75 x 10^5 cells) on the HTS
(§5) Transwell-96 permeable support (Corning) to form a confluent monolayer for two days.
(§6) All experimental steps were fully automated on Hamilton Vantage. Compound stock solution (1 mM in
(§7) DMSO) was diluted (10 μM final in HBSS, pH 7.4) with Lucifer Yellow as leakage indicator (20 μM). After
(§8) washing with HBSS buffer, the solution of test compounds was added to the apical side of the monolayers.
(§9) The plate was incubated for 3 h at 37 °C. T0 samples (10 µL of the 10 µM compounds diluted solution with
(§10) LY) were transferred to a 96-well plate, and then 40 µL of HBSS was added. After 3 hours, 50 μL basolateral
(§11) samples in the receiving plate were transferred to a fresh 96-well plate and added 100 μL of IS solution
(§12) (Propranolol). LY were read by plate reader and the samples were analyzed by LC/MS/MS.
(§13) The apparent permeability coefficient (Papp) is calculated from the permeation rate and compound
concentration at t=0h and t=3h. Where:
(§14) dQ/dt: amount of product present in the basal (A-B) or apical (B-A) compartment as a function of time
A: area of transwell (cm2).
(§15) C0: initial concentration of product applied in the apical (A -B) or basal (B-A) compartment (nmol/ml).

in vitro [4] = conditions: PAMPA
Experimental: assay was carried out with a 96-well donor plate with 0.45 μ hydrophobic Immobilon-P membrane supports
(Millipore MAIPNTR10) and a 96-well Teflon acceptor plate (Millipore MSSACCEPTOR). The PAMPA
protocol then proceeded as follows:
Donor well solutions were prepared to a volume of 1 000 µL with the analytes as a solution in 1X
PBS pH 7.4 and 5% DMSO. To a 3 mL Eppendorf tube was added 950 µL of 1X PBS pH 7.4, 40
Analyte – 10 µM per compound
sonicated (5 min) to ensure full dissolution of the lecithin. The donor membrane plate was turned
upside down and bottom of the membranes exposed. 5 µL of the 1% soy lecithin solution in
dodecane was then placed on the bottom of the membrane, allowing the drop to spread across the
full area of the membrane. Any membranes with visible damage were not used in the assay. The
membranes were allowed to equilibrate for 5 min before loading.
3. Each well within the Teflon block acceptor plate that was to be used in the assay was then loaded
with 300 µL of 1X PBS pH 7.4 and 5% DMSO.
Working without break, 150 µL of each donor well solution was transferred from the to the 96-well
donor plate. Each mixture of interest was r un in quadruplicate, using a new well for each replicate.
As soon as the 96-well donor plate was finished being loaded, it was gently placed into the 96-well
Teflon acceptor plate, taking care not to trap any air bubbles beneath the membrane.
The donor/acceptor plates were covered gently with the lid to minimize evaporation and transferred
gently as a system to a sealed chamber and left to sit overnight at room temperature. The chamber
was kept from drying by placing a wet paper towel within to prevent evaporation.
After ~19-20 hours the donor plate was removed from the acceptor plate.
50 µL of each well (donor and acceptor) were transferred to a 96 -well plate and diluted with 50 µL
of methanol prior to heat sealing and quantification by UPLC -MS.

[5] = test system: Mdr1 knockout Madin–Darby canine kidney (MDCK) cells
Experimental: as §1, §2, §3, §4, §5, §6, §7, §8, §9, §10, §11, §12, §13
concentration at t=0h and t=3h. Where:
as §14
A: area of transwell (cm2).
as §15

[6] = pH 7.4, Permeability (Papp) PAMPA (indiv.)

SMILES	solubility kinetic at 24 h (physchem) [µM]	%R_avg [2] [%]	Papp A→B at 3 h, 10 µM (in vitro [3]; MDCK) [×10⁻⁶ cm/s]	Papp at 10 µM (in vitro [4]; [6]) [×10⁻⁶ cm/s]	Papp at 3 h, 10 µM (in vitro [3]; MDCK) [×10⁻⁶ cm/s]	Papp at 10 µM (in vitro [4]; pH 7.4, PAMPA Papp) [×10⁻⁶ cm/s]	Papp A→B at 3 h, 10 µM (in vitro [3]) [×10⁻⁶ cm/s]	also measured
CCC[C@@H]1NC(=O)[C@H](C)N(C)C(=O)[C@H](CC(C)C)NC(=O)CSC[C@@H](C(=O)OCC)N(C)C(=O)[C@H](CC(C)C)NC(=O)[C@H](C)N(C)C(=O)[C@H](CC(C)C)NC(=O)CN(CCC)C(=O)[C@H]2CCCN2C1=O [LA07, O=C(N(C)[C@H](C(OCC)=O)CSCC(N[C@H](C(N(C)[C@@H](C)C(N[C@@H](CCC)C(N1[C@H](CCC1)C(N(CCC)CC(N[C@H]2CC(C)C)=O)=O)=O)=O)=O)CC(C)C)=O)[C@H](CC(C)C)NC([C@H](C)N(C)C2=O)=O] ({CH2CO}-L[NMeA][Nva][dP][NPrGly]L[NMeA]L[NMeC]-OEt; thioether N-9)	122 (≈ 123 µg/mL)	6.6	8.4	1.3	–	–	–	Papp at 10 µM (in vitro [1]): 3 ×10⁻⁶ cm/s
CCOC(=O)[C@@H]1CSCC(=O)N[C@H](CC)C(=O)N(CC(C)C)CC(=O)N[C@@H](CC(C)C)C(=O)N(C)[C@H](C)C(=O)N(C)[C@@H](C)C(=O)N[C@H](CC(C)C)C(=O)N(C)[C@@H](C)C(=O)N[C@@H](CC(C)C)C(=O)N1C [B1-7L, O=C([C@@H](NC([C@@H](N(C([C@H](NC([C@@H](N(C([C@H](N(C)C([C@@H](NC(CN1CC(C)C)=O)CC(C)C)=O)C)=O)C)C)=O)CC(C)C)=O)C)C)=O)CC(C)C)N([C@@H](CSCC(N[C@H](CC)C1=O)=O)C(OCC)=O)C] ({CH2CO}-[dAbu][Nleu]L[dNMeA][NMeA][dL][NMeA]L[NMeC]-OEt; thioether N-9)	–	–	–	–	1.2	5.7	–	MDCK Pe_avg ([5]; dog, MDCK, 3 h, 10 µM, pH 7.4): 1.21 ×10⁻⁶ cm/s
CCOC(=O)[C@@H]1CSCC(=O)N[C@@H](CC)C(=O)N(CC(C)C)CC(=O)N[C@@H](CC(C)C)C(=O)N(C)[C@H](C)C(=O)N(C)[C@@H](C)C(=O)N[C@H](CC(C)C)C(=O)N(C)[C@H](C)C(=O)N[C@@H](CC(C)C)C(=O)N1C [B1-1L, O=C([C@@H](NC([C@H](N(C([C@H](NC([C@@H](N(C([C@H](N(C)C([C@@H](NC(CN1CC(C)C)=O)CC(C)C)=O)C)=O)C)C)=O)CC(C)C)=O)C)C)=O)CC(C)C)N([C@@H](CSCC(N[C@@H](CC)C1=O)=O)C(OCC)=O)C] ({CH2CO}-[Abu][Nleu]L[dNMeA][NMeA][dL][dNMeA]L[NMeC]-OEt; thioether N-9)	–	–	–	–	–	0.5	0.03	Papp at 10 µM (in vitro [4]; pH 7.4, PAMPA Pe_avg): 0.455 ×10⁻⁶ cm/s
CCOC(=O)[C@@H]1CSCC(=O)N[C@H](CC)C(=O)N(C)[C@@H](C)C(=O)N[C@@H](CC(C)C)C(=O)N(C)[C@H](C)C(=O)N(CC(C)C)CC(=O)N[C@H](CC(C)C)C(=O)N(C)[C@@H](C)C(=O)N[C@@H](CC(C)C)C(=O)N1C [A1-7L, O=C(N(C)[C@H](C(OCC)=O)CSCC(N[C@@H](C(N(C)[C@@H](C)C(N[C@@H](CC(C)C)C(N(C)[C@H](C)C(N(CC(C)C)CC(N[C@@H]1CC(C)C)=O)=O)=O)=O)=O)CC)=O)[C@H](CC(C)C)NC([C@H](C)N(C)C1=O)=O] ({CH2CO}-[dAbu][NMeA]L[dNMeA][Nleu][dL][NMeA]L[NMeC]-OEt; thioether N-9)	–	–	–	–	–	–	–	MDCK Pe_avg ([5]; resynthesized stereoscan compounds, 10 μM, HBSS pH 7.4, 3 h): 6.41 ×10⁻⁶ cm/s
CCOC(=O)[C@@H]1CSCC(=O)N[C@H](CC)C(=O)N(CC(C)C)CC(=O)N[C@@H](CC(C)C)C(=O)N(C)[C@H](C)C(=O)N(C)[C@@H](C)C(=O)N[C@H](CC(C)C)C(=O)N(C)[C@H](C)C(=O)N[C@@H](CC(C)C)C(=O)N1C [B1, O=C([C@@H](NC([C@H](N(C([C@H](NC([C@@H](N(C([C@H](N(C)C([C@@H](NC(CN1CC(C)C)=O)CC(C)C)=O)C)=O)C)C)=O)CC(C)C)=O)C)C)=O)CC(C)C)N([C@@H](CSCC(N[C@H](CC)C1=O)=O)C(OCC)=O)C] ({CH2CO}-[dAbu][Nleu]L[dNMeA][NMeA][dL][dNMeA]L[NMeC]-OEt; thioether N-9)	–	–	–	–	1.3	10.1	1.27	Papp at 10 µM (in vitro [4]; pH 7.4, Papp): ~10 ×10⁻⁶ cm/s
CCC[C@@H]1NC(=O)[C@H](C)N(C)C(=O)[C@H](CC(C)C)NC(=O)CSC[C@@H](C(=O)OCC)N(C)C(=O)[C@H](CC(C)C)NC(=O)[C@H](C)N(C)C(=O)[C@H](CC2CCCCC2)NC(=O)CN(CC)C(=O)[C@H]2CCCN2C1=O [LA09, O=C(N(C)[C@H](C(OCC)=O)CSCC(N[C@H](C(N(C)[C@@H](C)C(N[C@@H](CCC)C(N1[C@H](CCC1)C(N(CC)CC(N[C@H]2CC3CCCCC3)=O)=O)=O)=O)=O)CC(C)C)=O)[C@H](CC(C)C)NC([C@H](C)N(C)C2=O)=O] ({CH2CO}-L[NMeA][Nva][dP][NEtG][Cha][NMeA]L[NMeC]-OEt; thioether N-9)	10 (≈ 10.3 µg/mL)	7.5	5.1	0.2	–	–	–	–
CCOC(=O)[C@@H]1CSCC(=O)N[C@H](CC)C(=O)N(CC(C)C)CC(=O)N[C@@H](CC(C)C)C(=O)N(C)[C@H](C)C(=O)N(C)[C@@H](C)C(=O)N[C@@H](CC(C)C)C(=O)N(C)[C@H](C)C(=O)N[C@@H](CC(C)C)C(=O)N1C [B1-6L, O=C([C@@H](NC([C@H](N(C([C@@H](NC([C@@H](N(C([C@H](N(C)C([C@@H](NC(CN1CC(C)C)=O)CC(C)C)=O)C)=O)C)C)=O)CC(C)C)=O)C)C)=O)CC(C)C)N([C@@H](CSCC(N[C@H](CC)C1=O)=O)C(OCC)=O)C] ({CH2CO}-[dAbu][Nleu]L[dNMeA][NMeA]L[dNMeA]L[NMeC]-OEt; thioether N-9)	–	–	–	–	0.4	0.7	0.39	Papp at 10 µM (in vitro [4]; pH 7.4, PAMPA Pe_avg): 0.738 ×10⁻⁶ cm/s
CCOC(=O)[C@@H]1CSCC(=O)N[C@H](CC)C(=O)N(CC(C)C)CC(=O)N[C@@H](CC(C)C)C(=O)N2CCC[C@@H]2C(=O)N(C)[C@@H](C)C(=O)N[C@H](CC(C)C)C(=O)N(C)[C@H](C)C(=O)N[C@@H](CC(C)C)C(=O)N1C [B1-4dP, O=C([C@@H](NC([C@H](N(C([C@H](NC([C@@H](N(C([C@@H]1N(CCC1)C([C@@H](NC(CN2CC(C)C)=O)CC(C)C)=O)=O)C)C)=O)CC(C)C)=O)C)C)=O)CC(C)C)N([C@@H](CSCC(N[C@H](CC)C2=O)=O)C(OCC)=O)C] ({CH2CO}-[dAbu][Nleu]L[dP][NMeA][dL][dNMeA]L[NMeC]-OEt; thioether N-9)	–	–	–	–	–	0.1	0.0274	Papp at 10 µM (in vitro [4]; pH 7.4, PAMPA Pe_avg): 0.213 ×10⁻⁶ cm/s
CCOC(=O)[C@@H]1CSCC(=O)N[C@H](CC)C(=O)N(CC(C)C)CC(=O)N[C@H](CC(C)C)C(=O)N(C)[C@H](C)C(=O)N(C)[C@@H](C)C(=O)N[C@H](CC(C)C)C(=O)N(C)[C@H](C)C(=O)N[C@@H](CC(C)C)C(=O)N1C [B1-3D, O=C([C@@H](NC([C@H](N(C([C@H](NC([C@@H](N(C([C@H](N(C)C([C@H](NC(CN1CC(C)C)=O)CC(C)C)=O)C)=O)C)C)=O)CC(C)C)=O)C)C)=O)CC(C)C)N([C@@H](CSCC(N[C@H](CC)C1=O)=O)C(OCC)=O)C] ({CH2CO}-[dAbu][Nleu][dL][dNMeA][NMeA][dL][dNMeA]L[NMeC]-OEt; thioether N-9)	–	–	–	–	0.5	1.5	0.48	–

Further lines, with some results ahead:

solubility kinetic at 24 h (physchem) [µM]	%R_avg [2] [%]	Papp A→B at 3 h, 10 µM (in vitro [3]; MDCK) [×10⁻⁶ cm/s]	Papp at 10 µM (in vitro [4]; [6]) [×10⁻⁶ cm/s]	Papp at 3 h, 10 µM (in vitro [3]; MDCK) [×10⁻⁶ cm/s]	Papp at 10 µM (in vitro [4]; pH 7.4, PAMPA Papp) [×10⁻⁶ cm/s]	Papp A→B at 3 h, 10 µM (in vitro [3]) [×10⁻⁶ cm/s]	SMILES	also measured
109 (≈ 111 µg/mL)	4.5	3.9	1.1	–	–	–	CCC[C@@H]1NC(=O)[C@H](C)N(C)C(=O)[C@H](CC(C)C)NC(=O)CSC[C@@H](C(=O)OCC)N(C)C(=O)[C@H](CC(C)C)NC(=O)[C@H](C)N(C)C(=O)[C@H](CC(C)C)NC(=O)[C@H](CCC)N(C)C(=O)[C@H]2CCCN2C1=O [LC07, O=C(N(C)[C@H](C(OCC)=O)CSCC(N[C@H](C(N(C)[C@@H](C)C(N[C@@H](CCC)C(N1[C@H](CCC1)C(N(C)[C@@H](CCC)C(N[C@H]2CC(C)C)=O)=O)=O)=O)=O)CC(C)C)=O)[C@H](CC(C)C)NC([C@H](C)N(C)C2=O)=O] ({CH2CO}-L[NMeA][Nva][dP][NMeNva]L[NMeA]L[NMeC]-OEt; thioether N-9)	–
132 (≈ 133 µg/mL)	–	3.2	2.2	3.2	3.1	3.15	CCC[C@@H]1NC(=O)CN(CCC)C(=O)[C@H](CC(C)C)NC(=O)CSC[C@@H](C(=O)OCC)N(C)C(=O)[C@H](CC(C)C)NC(=O)[C@H](C)N(C)C(=O)[C@H](CC(C)C)NC(=O)[C@H](C)N(C)C(=O)[C@H]2CCCN2C1=O [LB07, O=C(N(C)[C@H](C(OCC)=O)CSCC(N[C@H](C1=O)CC(C)C)=O)[C@H](CC(C)C)NC([C@H](C)N(C)C([C@H](CC(C)C)NC([C@H](C)N(C)C([C@@H]2N(C([C@H](CCC)NC(CN1CCC)=O)=O)CCC2)=O)=O)=O)=O] ({CH2CO}-L[NPrGly][Nva][dP][NMeA]L[NMeA]L[NMeC]-OEt; thioether N-9)	–
19 (≈ 19.7 µg/mL)	6.4	4.4	1.4	–	–	–	CCC[C@@H]1NC(=O)CN(CC)C(=O)[C@H](CC(C)C)NC(=O)CSC[C@@H](C(=O)OCC)N(C)C(=O)[C@H](CC(C)C)NC(=O)[C@H](C)N(C)C(=O)[C@H](CC2CCCCC2)NC(=O)[C@H](C)N(C)C(=O)[C@H]2CCCN2C1=O [LB09, O=C(N(C)[C@H](C(OCC)=O)CSCC(N[C@H](C1=O)CC(C)C)=O)[C@H](CC(C)C)NC([C@H](C)N(C)C([C@H](CC2CCCCC2)NC([C@H](C)N(C)C([C@@H]3N(C([C@H](CCC)NC(CN1CC)=O)=O)CCC3)=O)=O)=O)=O] ({CH2CO}-L[NEtG][Nva][dP][NMeA][Cha][NMeA]L[NMeC]-OEt; thioether N-9)	–
126 (≈ 124 µg/mL)	51.1	1.8	1.1	–	–	1.77	CCOC(=O)[C@@H]1CSCC(=O)N[C@@H](CC(C)C)C(=O)N(CC)CC(=O)N[C@@H](CC(C)C)C(=O)N2CCC[C@@H]2C(=O)N(C)[C@@H](C)C(=O)N[C@@H](CC)C(=O)N(C)[C@@H](C)C(=O)N[C@@H](CC(C)C)C(=O)N1C [LB02, O=C(N(C)[C@H](C(OCC)=O)CSCC(N[C@H](C1=O)CC(C)C)=O)[C@H](CC(C)C)NC([C@H](C)N(C)C([C@H](CC)NC([C@H](C)N(C)C([C@@H]2N(C([C@H](CC(C)C)NC(CN1CC)=O)=O)CCC2)=O)=O)=O)=O] ({CH2CO}-L[NEtG]L[dP][NMeA][Abu][NMeA]L[NMeC]-OEt; thioether N-9)	Papp at 10 µM (in vitro [1]): 1 ×10⁻⁶ cm/s
